The assay has as its system xCT. Briefly: Western blot of xCT in THP-1-derived macrophages. Format: cell-based, human. The following applies: 5 mM NAC 1 h pretreatment, then 100 μg/ml Virofree 6 or 24 h. How it is done:
The cells were exposed to different treatments for the indicated time, the cells were lysed on ice with lysis buffer. The cell lysate was cleared by centrifugation at 12,000 g for 10 min. The lysate was resolved by sodium dodecyl sulfate-polyacrylamide gel electrophoresis, and the proteins were transferred to a polyvinylidene fluoride membrane. After blocking with 5% non-fat dry milk in Tris-buffered saline, the membrane was incubated overnight with the desired primary antibody (FPN (Novus Biologicals, NBP1-21502, 1:1000), FTH-1 (Cell signaling, 4393S, 1:1000), GPX4 (Abcam, ab125066, 1:1000), TFRC (Cell signaling, 13208s, 1:1000), xCT (Cell signaling, 17681s, 1:1000), GAPDH (GeneTex, GTX100118, 1:10,000), α-SMA (Abcam, ab5694, 1:1000), Fibronectin (Santa Cruz, sc-9068, 1:1000), N-cadherin (BD, 610920, 1:1000), β-actin (GeneTex, GTX109639, 1:10000)). Subsequently, the membrane was incubated with an appropriate secondary antibody. Immunoreactive bands were visualized using the enhanced chemiluminescence (ECL) method and captured by a Luminescence Imaging system (LAS 4000™, Fuji Photo Film Co. Ltd).
For orientation: In western blotting, separated proteins are transferred to a membrane and probed.

`CC(=O)N[C@@H](CS)C(=O)O` [N-acetyl cysteine]: the “xCT expression mediated by Virofree after NAC pretreatment” value was “significantly decrease”.
